Measured values as given in patent US12121500B2, “Inhibitors of Bunyaviridae and uses thereof” (priority 2020, dated 2024).
Converted amounts (≈) assume the structure as drawn. Like-named read-outs stand apart in the source and are kept apart here.

How the values were obtained:
HepDES19 = assay: Cytotoxicity in HepDES19 cells, MTS assay; conditions: read-out: CC50 HepDES19; HepDES19 cells, 3 days, MTS; * marks limit value
[1] = Quantitative cytotoxicity in Vero cells, crystal violet staining of EC50 plates; conditions: African green monkey
RVFV [2] = assay: microbe, parasite or virus in culture; type: cell-based, Rift Valley Fever Virus
RVFV strain MP12 = assay: microbe, parasite or virus in culture; type: cell-based, Rift Valley Fever Virus; conditions: for EC50: read-out: Estimated EC50
C. neoformans = assay: Inhibition of C. neoformans growth, limiting dilution assay; type: cell-based, Cryptococcus neoformans; conditions: 48 hours at 35° C., YNB-02; for MIC80: Cryptococcus neoformans, read-out: C. neoformans (MIC80)
[3] = Cytotoxicity in HepDES19 cells, MTS assay; conditions: human, HepDES19 cells (HepG2-derived hepatoblastoma cell line)
human ribonuclease H1 = target: T1, human ribonuclease H1 (Homo sapiens, UniProt O60930); assay: biochemical; type: biochemical
T1 construct: made in house; host or cells: E. coli
T1 sequence (O60930 1-286): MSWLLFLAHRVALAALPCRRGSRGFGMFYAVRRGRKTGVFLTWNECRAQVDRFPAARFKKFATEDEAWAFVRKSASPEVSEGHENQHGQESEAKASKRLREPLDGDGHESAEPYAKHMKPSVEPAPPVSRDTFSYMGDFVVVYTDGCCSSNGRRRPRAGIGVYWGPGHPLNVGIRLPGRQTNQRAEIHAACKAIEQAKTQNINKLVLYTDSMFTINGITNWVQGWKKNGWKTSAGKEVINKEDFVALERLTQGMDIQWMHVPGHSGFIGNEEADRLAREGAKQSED

Staphylococcus spp. = assay: Inhibition of Staphylococcus spp. growth, broth microdilution; type: cell-based, S. saprophyticus or S. aureus; conditions: 16-24 hours, Mueller-Hinton broth, — = no measurable MIC80; for MIC80: Staphylococcus
Escherichia coli = assay: Inhibition of Escherichia coli growth, broth microdilution; type: cell-based; conditions: 16-24 hours, Mueller-Hinton broth, — = inactive; for MIC80: Escherichia coli, read-out: E. coli (MIC80)
in vitro [4] = conditions: African green monkey
RVFV [5] = assay: microbe, parasite or virus in culture; type: cell-based, Rift Valley Fever Virus; remark: listed apart in the source
Vero cells [6] = assay: Quantitative cytotoxicity in Vero cells, crystal violet staining of EC50 plates; conditions: read-out: CC50 Vero, 1 day of compound exposure, crystal violet, * marks limit values
Vero cells [7] = test system: Vero cells
in vitro [8] = conditions: human
[9] = Rift Valley fever virus, Vero, 24 h, read-out: RVFV (EC50, μM)
[10] = Rift Valley fever virus, A549, 24 h

SMILES	CC50 (HepDES19) [µM]	CC50 at 1 day [1] [µM]	EC50 (RVFV [2]; [9]) [µM]	EC50 (RVFV strain MP12; Rift Valley fever virus, Vero) [µM]	MIC80 (C. neoformans) [µM]	IC50 (human ribonuclease H1) [µM]	MIC80 (Staphylococcus spp.) [µM]	MIC80 (Escherichia coli) [µM]	IC50 (human ribonuclease H1; read-out: Human RNaseH1 (IC50)) [µM]	CC50 (in vitro [4]) [µM]	Staphylococcus spp. (MIC80, μM) (Staphylococcus spp.)	EC50 (RVFV [2]; read-out: RVFV (EC50)) [µM]	further results
Cc1cc(O)c(=O)c(O)cc1C(=O)c1cccc(Br)c1 [Compound 359]	19.4	170	5.1	4	24 (≈ 8.04 µg/mL)	–	–	–	–	–	–	–	–
Cc1cc(O)c(=O)c(O)cc1C(=O)NCc1ccccc1 [Compound 388]	–	239	9	19	11 (≈ 3.14 µg/mL)	166	67 (≈ 19.1 µg/mL)	67 (≈ 19.1 µg/mL)	–	–	–	–	CC50 at 3 days [3]: 19.8 µM; activity against RVFV in the primary screen, in words (RVFV strain MP12): active
Cc1cc(O)c(=O)c(O)c(O)c1C(=O)c1ccc(-c2ccccc2)cc1 [Compound 362]	5.4	77.8	2.6	6	24 (≈ 8.36 µg/mL)	–	–	–	212	–	–	–	E. coli (MIC80, μM) (Escherichia coli): inactive
CC(C)Sc1ccc(SC(C)C)c(O)c(=O)c1O [Compound 696]	14.1	56.5	6	12	1.5 (≈ 0.43 µg/mL)	–	13 (≈ 3.72 µg/mL)	20 (≈ 5.73 µg/mL)	–	118	–	–	–
Cc1cc(O)c(=O)c(O)cc1C(=O)Nc1ccccc1 [Compound 389]	–	> 250	8.8	16	3.5 (≈ 0.949 µg/mL)	309	44 (≈ 11.9 µg/mL)	44 (≈ 11.9 µg/mL)	–	–	good to moderate activity	–	CC50 at 3 days [3]: 26.5 µM; Human RNaseH1 (IC50, μM) (human ribonuclease H1): nearly inactive; E. coli (MIC80, μM) (Escherichia coli): good to moderate activity; activity against RVFV in the primary screen, in words (RVFV strain MP12): active
Cc1cc(O)c(=O)c(O)cc1C(=O)c1ccccc1O [Compound 311]	–	> 250	11.6	3	15 (≈ 4.08 µg/mL)	26	67 (≈ 18.2 µg/mL)	30 (≈ 8.17 µg/mL)	–	115	–	–	–
CC[C@H](C)[C@H](NC(=O)OCC1c2ccccc2-c2ccccc21)C(=O)Sc1cccccc1=O [Compound 686]	42.6	–	–	–	–	–	–	–	> 500	–	30 µM	> 120	EC50 (RVFV [5]; read-out: EC50): 7.87 µM; CC50 (Vero cells [6]): > 120 µM; CC50 (A549 cells): 67.6 µM; EC50 (RVFV strain MP12): 2 µM; C. neoformans (MIC80, μM) (C. neoformans): 0.85 µM; CC50 (Vero cells [7]): ≥ 120 µM
CCc1cccc(N=C(C)c2c(C)cc(=O)n(O)c2O)c1 [Compound 518]	91.4	–	–	–	–	–	–	–	436	–	67 µM	20	EC50 (RVFV [5]; read-out: EC50): 17.2 µM; CC50 (Vero cells [6]): > 120 µM; CC50 (A549 cells): 16.5 µM; EC50 (RVFV strain MP12): 7 µM; C. neoformans (MIC80, μM) (C. neoformans): 24 µM; CC50 (Vero cells [7]): ≥ 120 µM
Cc1cc(O)c(=O)c(O)cc1C(=O)NC(CCC(=O)OC(C)(C)C)C(=O)OC(C)(C)C (stereo not drawn) [Compound 867]	5.2	> 120	8.7	7	9 (≈ 3.94 µg/mL)	> 500	–	–	–	≥ 120	–	–	EC50 (RVFV [5]; [10]): 33 µM; CC50 (in vitro [8]): ≥ 120 µM
Cc1cc(O)c(=O)c(O)cc1C(=O)N1CCN(C(c2ccc(F)cc2)c2ccc(F)cc2)CC1 [Compound 1017]	3.9	54.7	8	3	6 (≈ 2.8 µg/mL)	–	–	–	–	≥ 120	–	–	–
C/C(=N\c1ccc(Cl)c(Cl)c1)c1c(C)cc(O)n(O)c1=O [Compound 670]	69	> 120	14 to 20	10	69 (≈ 22.6 µg/mL)	–	–	–	356	≥ 120	–	14	EC50 (RVFV [5]; [10]): 15.3 µM; CC50 (in vitro [8]): ≥ 120 µM
Cc1cc(O)c(=O)c(O)cc1C(=O)c1cccs1 [Compound 308]	–	217	0.54	2	11 (≈ 2.89 µg/mL)	–	44 (≈ 11.5 µg/mL)	25 (≈ 6.56 µg/mL)	46	111	–	–	EC50 (RVFV [5]; [10]): 8.36 µM; EC50 (RVFV [5]; Rift Valley fever virus, A549, 24 h, read-out: EC50 in A549 cells): 8.4 µM; CC50 (in vitro [8]): 119 µM
Cc1ccc(/C=C/C(=O)c2ccccc(=O)c2O)cc1 [Compound 340]	18.7	–	–	–	–	–	–	–	> 500	–	–	27.3	CC50 (Vero cells [6]): 70 µM; EC50 (RVFV strain MP12): 3 µM; C. neoformans (MIC80, μM) (C. neoformans): 49 µM
O=C(Cc1ccccc1)Sc1cccccc1=O [Compound 680]	95.6	–	–	–	–	–	–	–	652	–	13 µM	> 120	EC50 (RVFV [5]; read-out: EC50): 11.6 µM; CC50 (Vero cells [6]): > 120 µM; CC50 (A549 cells): ≥ 120 µM; E. coli (MIC80, μM) (Escherichia coli): 30 µM; EC50 (RVFV strain MP12): 0.3 µM; C. neoformans (MIC80, μM) (C. neoformans): 0.40 µM; CC50 (Vero cells [7]): 0.9 µM
Cc1cc(O)c(=O)c(O)cc1C(=O)c1ccc(-c2ccncc2)cc1 [Compound 260]	–	> 250	31.6	–	50 (≈ 16.7 µg/mL)	277	–	–	–	–	poorly active or inactive	–	CC50 at 3 days [3]: 45 µM; Human RNaseH1 (IC50, μM) (human ribonuclease H1): poorly active or inactive; E. coli (MIC80, μM) (Escherichia coli): poorly active or inactive
CCCCSc1ccc(SCCCC)c(O)c(=O)c1O [Compound 694]	1.8	22.1	3.7	6	2.3 (≈ 0.723 µg/mL)	> 500	9 (≈ 2.83 µg/mL)	–	–	≥ 120	–	–	–
